According to patent US20170165283A1, “USE OF BETA-NICOTINAMIDE MONONUCLEOTIDE IN PREPARATION OF HEALTH-CARE PRODUCTS FOR PREVENTING AND TREATING ARTERIOSCLEROSIS AND CARDIO-CEREBROVASCULAR DISEASES, AND HEALTH-CARE PRODUCT CONTAINING THE SAME” (BONTAC BIO-ENGINEERING (SHENZHEN) CO., LTD, priority 2015, published 2017):

What was measured:
[1] = system: guinea pigs fed on high-fat diet (arteriosclerosis, lesion of the aorta); experiment: Aortic lesion area (Sudan IV staining) in guinea pigs fed on high-fat diet; type: in vivo; conditions: end of week 7, x±s
Protocol: 70 SPF healthy guinea pigs (female:male 1:1) having a body weight of 250-300 g, were assigned to 7 groups at random, each group having 10 animals. The groups include (1) a normal control group, fed on basal diet, and allowed to free access to water during experiment;
(2) a high fat control group, fed on high-fat diet, and allowed to free access to water during experiment;
(3) a high fat prevention group, fed on high-fat diet, dosed with 50 mg NMN/kg body weight every day by gavage, and allowed to free access to water during experiment;
(4) a low-dose NMN group, fed on high-fat diet, dosed with 0.5 mg NMN/kg body weight every day by gavage from week 6, and allowed to free access to water during experiment;
(5) a medium-dose NMN group, fed on high-fat diet, dosed with 50 mg NMN/kg body weight every day by gavage from week 6, and allowed to free access to water during experiment;
(6) a high-dose NMN group, fed on high-fat diet, dosed with 100 mg NMN/kg body weight every day by gavage from week 6, and allowed to free access to water during experiment; and (7) a NMN+NR group, fed on high-fat diet, dosed with 50 mg NMN/kg body weight and 5 mg NR/kg body weight every day by gavage from week 6, and allowed to free access to water during experiment.
The formulation of the high-fat diet includes 75% basal diet, 5% cholesterol, and 20% lard oil.
At the end of week 7, all the experimental animals was fasted (allowed to access to water) for 12 hrs and then sacrificed. The aorta was isolated, dissected longitudinally along the midline of the anterior wall, and stained with Sudan IV. […] The lesion area pathologically measured and the total endangium area were quantified, and the degree of arteriosclerosis was expressed by percentages of the lesion area relative to the total endangium area of the aorta.
Statistical analysis: All the experimental data is analyzed by SPSS13.0 Statistics software. The measurement data is expressed as x±s, and t test is applied to check the statistical significance. Where P <0.05, there is statistical significance.

[2] = system: patients diagnosed as having cardio-cerebrovascular diseases resulting from arteriosclerosis; experiment: Clinical trial in patients with cardio-cerebrovascular diseases resulting from arteriosclerosis; type: in vivo, human; conditions: Group A: oral NMN 10 mg/kg body weight every day; for Total effective rate: excluding the withdrawing patients
Protocol: 200 patients (male:female 1:1, aged 35-76 years and 55 years on average, and having a course of disease of the shortest 2 years, the longest 7 years, and 4.8 years on average) diagnosed as having cardio-cerebrovascular diseases resulting from arteriosclerosis were selected at random as subjects for clinical observation. The patients were assigned to a group A and a group B at random, each group having 100 patients.
Group A: The patients were orally administered with NMN at a dosage of 10 mg/kg body weight before or after meals every day, and the diet was controlled as desired.
Group B: The patients were orally administered with NMN at a dosage of 10 mg/kg body weight and with NR at a dosage of 2 mg/kg body weight before or after meals every day, and the diet was controlled as desired.
(1) Obvious effectiveness: The health is built up, the body is powerful, the blood lipid and blood pressure drop to normal levels, the palpitation, chest pain, chest tightness, headache, dizziness, decreased vision, decreased memory, insomnia and dreamful sleep, and other clinical symptoms are obvious alleviated.
(2) Effectiveness: The health is built up, the blood lipid and blood pressure drop slightly, the palpitation, chest pain, chest tightness, headache, dizziness, decreased vision, decreased memory, insomnia and dreamful sleep, and other clinical symptoms are alleviated to some extent.
(3) Ineffectiveness: There is no obvious improvement in the clinical symptoms.

NC(=O)c1ccc[n+]([C@@H]2O[C@H](COP(=O)([O-])O)[C@@H](O)[C@H]2O)c1 [NMN, β-nicotinamide mononucleotide] was tested, and the “Rate of lesion area of aorta (%)” value ([1]; high fat prevention group: high-fat diet, 50 mg NMN/kg body weight every day by gavage, n=10) was 4 ± 1%, the “Rate of lesion area of aorta (%)” value ([1]; high-dose group: high-fat diet, 100 mg NMN/kg body weight every day by gavage from week 6) was 12 ± 3% and the “Rate of lesion area of aorta (%)” value ([1]; low-dose group: high-fat diet, 0.5 mg NMN/kg body weight every day by gavage from week 6) was 59 ± 4%. The “Rate of lesion area of aorta (%)” value ([1]; medium-dose group: high-fat diet, 50 mg NMN/kg body weight every day by gavage from week 6) was 23 ± 2%, the “Time after administration at which patients with mild disease are cured” value [2] was 7 days and the “Patients showing obvious effectiveness” value ([2]; after 1 month) was 67 out of 100 patients. For the same compound, the Patients showing effectiveness ([2]; after 1 month, 100 patients) was 28 patients, the Patients showing ineffectiveness ([2]; after 1 month, 100 patients) was 4 patients and the Total effective rate ([2]; after 1 month) was 96%. The Total effective rate ([2]; after 1 month, listed as β-nicotinamide mononucleotide) was “up to 96%”.
